The results in this text go back to patent US10829487B2, “Benzylamino substituted pyridopyrimidinones and derivatives as SOS1 inhibitors” (Boehringer Ingelheim International GmbH, priority 2017, dated 2020).

The target in experiment [1] is protein-protein interaction between SOS1 and KRAS G12D (Homo sapiens (Human), UniProt Q07889). In words: KRAS::SOS1 AlphaScreen Binding Assay. The source says:
KRAS::SOS1 AlphaScreen Binding Assay
Low IC50 values are indicative of high potency of the SOS1 inhibitor compound in this assay setting:
Reagents: • GST-tagged SOS1 (564_1049_GST_TEV_ECO) produced in-house • GST-TEV-SOS1 (564-1049) is purchased from Viva Biotech Ltd. • 6×His-Tev-K-RasG12D(1-169)Avi is purchased from Xtal BioStructures, Inc. (Lot # X129-110) • GDP (Sigma Cat No G7127) • AlphaLISA Glutathione Acceptor Beads (PerkinElmer, Cat No AL109) • AlphaScreen Streptavidin Donor Beads (PerkinElmer Cat No 6760002) • Assay plates: Proxiplate-384 PLUS, white (PerkinElmer, Cat No 6008289)
10 nM (final assay concentration) KRAS G12D, 10 μM (final assay concentration) GDP and 5 nM (final assay concentration) GST-SOS1 are mixed in assay buffer prior to use and kept at room temperature.
AlphaLISA Glutathione Acceptor Beads and AlphaScreen Streptavidin Donor Beads are mixed in assay buffer at a concentration of 10 μg/mL (final assay concentration) each prior to use and kept at room temperature.
Compounds are diluted to a final start concentration of 100 μM and are tested in duplicate. Assay-ready plates (ARPs) are generated using an Access Labcyte Workstation with a Labcyte Echo 550 or 555 accoustic dispenser. For compound a start concentration of 100 μM, 150 nL of compound solution is transferred per well in 11 concentrations in duplicate with serial 1:5 dilutions.
The assay is run using a fully automated robotic system in a darkened room below 100 Lux. 10 μL of KRAS::SOS1 GDP mix is added into columns 1-24 to the 150 nL of compound solution (final dilution in the assay 1:100, final DMSO concentration 1%).
After a 30 minute incubation time 5 μL of bead mix is added into columns 1-23. Plates are kept at room temperature in a darkened incubator. After a further 60 minute incubation, the signal is measured using a PerkinElmer Envision HTS Multilabel Reader using the AlphaScreen specifications from PerkinElmer. Each plate contains the following controls: • diluted DMSO+KRAS::SOS1 GDP mix+bead mix • diluted DMSO+KRAS::SOS1 GDP mix
IC50 values are calculated and analyzed using a 4 parametric logistic model.

In experiment [2] the test system is ERK phosphorylation in DLD-1 cells (KRAS G13D). Description: ERK Phosphorylation Assay (AlphaLISA SureFire Ultra p-ERK1/2). In kind it is cell-based. As to conditions: Homo sapiens, 1 h compound, EGF 50 ng/mL 10 min, read-out: pERK. The method, then:
ERK Phosphorylation Assay
Low IC50 values are indicative of high potency of the SOS1 inhibitor compounds in this assay setting.
ERK phosphorylation assays are performed using the following human cell lines: DLD-1 (ATCC CCL-221): human colon cancer with a KRAS G13D mutation;
DLD-1 cells (ATCC CCL-221) are seeded at 50,000 cells per well in/60 μL of RPMI with 10% FBS, non-essential amino acids, pyruvate and glutamax in Greiner TC 384 plates. The cells are incubated for 1 h at room temperature and then incubated overnight in an incubator at 37° C. and 5% CO2 in a humidified atmosphere. 60 nL compound solution (10 mM DMSO stock solution) is then added using a Labcyte Echo 550 device. After a 1 h incubation in the aforementioned incubator, 3 μL Epidermal Growth Factor (EGF, final concentration 50 ng/mL) is added. 10 minutes later the medium is removed, and the cells lysed by addition of 20 μL of 1.6-fold lysis buffer from the AlphaLISA SureFire Ultra pERK1/2 (Thr202/Tyr204) Assay Kit with added protease inhibitors, 100 nM trametinib+100 nM staurosporine. After 20 minutes of incubation at room temperature with shaking, 6 μL of each lysate sample is transferred to a 384-well Proxiplate and analyzed for pERK (Thr202/Tyr204) with the AlphaLISA SureFire Ultra pERK1/2 (Thr202/Tyr204) Assay Kit. 3 μL Acceptor Mix and 3 μL Donor Mix are added under subdued light and incubated for 2 h at room temperature in the dark, before the signal is measured on a Perkin Elmer Envision plate reader using 384 AlphaScreen settings for Proxiplates. Data are fitted by iterative calculation with variable hill slope. The sigmoidal curve slope is fitted using a default fitting curve to ascertain IC50 values.

Setting [3] is: Table 20, KRAS::SOS1 AlphaScreen (SOS1 / KRAS G12D).
The mark [4] stands for this setting: KRAS G12D::SOS1 AlphaScreen, measured without EDTA unless marked with an asterisk.

Chain of protein-protein interaction between SOS1 and KRAS G12D (Q07889 564-1049, stated change not applied): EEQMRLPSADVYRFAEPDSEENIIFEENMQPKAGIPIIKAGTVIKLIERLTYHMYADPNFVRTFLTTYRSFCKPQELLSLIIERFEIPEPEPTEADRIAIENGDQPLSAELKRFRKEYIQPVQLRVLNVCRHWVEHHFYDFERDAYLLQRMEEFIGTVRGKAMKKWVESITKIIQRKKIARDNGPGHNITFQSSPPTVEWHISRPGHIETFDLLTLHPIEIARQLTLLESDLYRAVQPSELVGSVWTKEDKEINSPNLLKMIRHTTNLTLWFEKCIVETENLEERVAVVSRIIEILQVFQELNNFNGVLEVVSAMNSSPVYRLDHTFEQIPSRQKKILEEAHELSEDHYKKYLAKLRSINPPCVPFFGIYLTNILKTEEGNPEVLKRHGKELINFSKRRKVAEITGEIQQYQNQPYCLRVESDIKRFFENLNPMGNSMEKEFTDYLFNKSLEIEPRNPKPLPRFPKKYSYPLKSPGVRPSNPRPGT

For the molecule `Cc1nc(N[C@H](C)c2cccc(C(F)F)c2C)c2cn(C3(C(F)F)CC3)c(=O)cc2n1` [I-21], the IC50 worked out at 3 nM in experiment [1] (setting [3]) and 113 nM in experiment [2].

For `Cc1nc(N[C@H](C)c2cccc(C(F)F)c2C)c2cn(C3(C)CCC3)c(=O)cc2n1` [I-23], the IC50 in experiment [1] (setting [3]) was 4 nM; in experiment [2] it was 111 nM.

`Cc1nc(N[C@H](C)c2cccc(C(F)(F)F)c2C)c2cn(C3(C)CC3)c(=O)cc2n1` [I-37]: the IC50 in experiment [1] (setting [3]) came out at 5 nM; in experiment [2], 61 nM.

Consider `Cc1nc(N[C@H](C)c2cccc(C(F)(F)F)c2C)c2cn(C3(CF)CC3)c(=O)cc2n1` [I-38], for which the IC50 in experiment [2] is 33 nM.

`Cc1nc(N[C@H](C)c2cccc(C(F)(F)F)c2C)c2cn(C3(C(F)(F)F)CC3)c(=O)cc2n1` [I-39]: the IC50 was 18 nM in experiment [1] (setting [3]) and 62 nM in experiment [2].

As for `Cc1nc(N[C@H](C)c2cccc(C(C)(F)F)c2F)c2cn(C3(C)CC3)c(=O)cc2n1` [I-52], the figures for the IC50 in experiment [1] (setting [3]) and in experiment [2] were 4 nM and 96 nM, respectively.

Regarding `Cc1nc(N[C@H](C)c2cccc3c2CCC3(F)F)c2cn(C3(C(F)F)CC3)c(=O)cc2n1` [I-58], the IC50 amounted to 2 nM in experiment [1] (setting [3]) and 89 nM in experiment [2].

For the molecule `Cc1nc(N[C@H](C)c2cccc3c2CCC3(F)F)c2cn(C34CC(C3)C4)c(=O)cc2n1` [I-59], the IC50 came out at 3 nM in experiment [1] (setting [3]) and 113 nM in experiment [2].

As for `Cc1nc(N[C@H](C)c2cccc(C(F)(F)CO)c2F)c2cn(C34CCC(CC3)C4)c(=O)cc2n1` [I-61], the IC50 was found to be 1 nM in experiment [1] (setting [3]) and 95 nM in experiment [2].

In the case of `C[C@@H](Nc1ncnc2cc(=O)n(C34CCC(F)(CC3)CC4)cc12)c1cccc(C(F)F)c1F` [I-73], the IC50 in experiment [1] (setting [3]) was 3 nM; in experiment [2], 88 nM.

Consider `Cc1nc(N[C@H](C)c2cccc3c2OCC3(F)F)c2cn(C3(C(F)F)CC3)c(=O)cc2n1` [I-102], for which the results for the IC50 in experiment [1] (setting [3]) and in experiment [2] were 4 nM and 67 nM, respectively.

Regarding `Cc1nc(N[C@H](C)c2cccc3c(F)coc23)c2cn(C3(C(F)F)CC3)c(=O)cc2n1` [I-103], the IC50 in experiment [1] (setting [3]) was 5 nM; in experiment [2], 70 nM.

On to `C[C@@H](Nc1ncnc2cc(=O)n(C3(C)CC3)cc12)c1cccc2c1CCC2(F)F` [I-104], for which the IC50 worked out at 4 nM in experiment [1] (setting [4]) and 87 nM in experiment [2].

For `C[C@@H](Nc1ncnc2cc(=O)n(C34CC(C3)C4)cc12)c1cccc2c1CCC2(F)F` [I-106], the IC50 in experiment [1] (setting [4]) came to 4 nM; in experiment [2], 113 nM.

`Cc1nc(N[C@H](C)c2cccc(C(F)(F)F)c2)c2cn(C34CCC(CC3)C4)c(=O)cc2n1` [I-115] gave an IC50 in experiment [1] (setting [4]) of 10 nM.

`Cc1nc(N[C@H](C)c2cccc(C(F)F)c2F)c2cn(C3(C(F)(F)F)CCOC3)c(=O)cc2n1` (some centres unmarked) [I-117]: the IC50 in experiment [1] (setting [4]) turned out to be 9 nM.

With `Cc1nc(N[C@H](C)c2cccc(C(F)F)c2F)c2cn([C@@]3(C(F)(F)F)CCOC3)c(=O)cc2n1` [I-118], in experiment [1] (setting [4]), the IC50 was 20 nM.

As for `Cc1nc(N[C@H](C)c2cccc(C(F)F)c2F)c2cn([C@]3(C(F)(F)F)CCOC3)c(=O)cc2n1` [I-119], the IC50 in experiment [1] (setting [4]) turned out to be 5 nM; in experiment [2], 70 nM.

`Cc1nc(N[C@H](C)c2cccc(C(F)F)c2F)c2cn(C34CCC(CC3)CC4)c(=O)cc2n1` [I-120] gave an IC50 in experiment [1] (setting [4]) of 6 nM.

Regarding `Cc1nc(N[C@H](C)c2cccc(C(F)F)c2F)c2cn(C34CCC(F)(CC3)CC4)c(=O)cc2n1` [I-121], the IC50 in experiment [1] (setting [4]) was 5 nM; in experiment [2], 93 nM.

In the case of `Cc1nc(N[C@H](C)c2cccc(C(F)F)c2F)c2cn(C34CCC(O)(CC3)CC4)c(=O)cc2n1` [I-122], the IC50 in experiment [1] (setting [4]) was found to be 3 nM.

With `Cc1nc(N[C@H](C)c2cccc(C(F)F)c2C)c2cn(C34CCC(C(=O)N(C)C)(CC3)CC4)c(=O)cc2n1` [I-124], the IC50 in experiment [1] (setting [4]) was 2 nM; in experiment [2], 85 nM.

Take `Cc1nc(N[C@H](C)c2cccc(C(F)(F)CO)c2F)c2cn(C34CCC(CC3)CC4)c(=O)cc2n1` [I-130]: the IC50 in experiment [1] (setting [4]) came out at 1 nM; in experiment [2], 38 nM.

`Cc1nc(N[C@H](C)c2cccc(C(F)F)c2F)c2cn(C3(C)CC3)c(=O)c(C)c2n1` [I-155] came in with an IC50 in experiment [1] (setting [4]) of 5 nM.

In the case of `Cc1nc(N[C@H](C)c2cccc(C(F)F)c2F)c2cn(C34CCC(O)(CC3)CC4)c(=O)c(C)c2n1` [I-156], the figures for the IC50 in experiment [1] (setting [4]) and in experiment [2] were 4 nM and 57 nM, respectively.

For `Cc1nc(N[C@H](C)c2cccc(C(F)F)c2C)c2cn(C3(C)CC3)c(=O)c(C)c2n1` [I-157], the IC50 in experiment [1] (setting [4]) is 5 nM; in experiment [2], 104 nM.

`Cc1nc(N[C@H](C)c2cccc3c2CCC3(F)F)c2cn(C34CCN(CC3)C4)c(=O)c(C)c2n1` [I-160] gave an IC50 in experiment [1] (setting [4]) of 2 nM.

Molecule `Cc1c(=O)n(C2(CF)CC2)cc2c(N[C@H](C)c3cccc(C(F)F)c3F)ncnc12` [I-162] showed an IC50 in experiment [1] (setting [4]) of 7 nM.

As for `Cc1c(=O)n(C2(C(F)(F)F)CC2)cc2c(N[C@H](C)c3cccc(C(F)F)c3F)ncnc12` [I-164], the IC50 in experiment [1] (setting [4]) amounted to 13 nM.

On to `Cc1c(=O)n(C2CC23CC3)cc2c(N[C@H](C)c3cccc(C(F)F)c3F)ncnc12` (some centres unmarked) [I-167], for which the IC50 in experiment [1] (setting [4]) worked out at 36 nM.

In experiment [1] (setting [4]), `Cc1c(=O)n([C@H]2C[C@H](F)C2)cc2c(N[C@H](C)c3cccc(C(F)F)c3F)ncnc12` [I-168] came in with an IC50 of 9 nM.

On to `Cc1c(=O)n(C23CCC(F)(CC2)CC3)cc2c(N[C@H](C)c3cccc(C(F)F)c3F)ncnc12` [I-171], for which the IC50 in experiment [1] (setting [4]) is 6 nM; in experiment [2], 93 nM.

Regarding `Cc1c(=O)n(C2(C)CC2)cc2c(N[C@H](C)c3cccc(C(C)(F)F)c3F)ncnc12` [I-174], in experiment [1] (setting [4]), the IC50 was found to be 9 nM.

In turn, `Cc1c(=O)n(C2(CF)CC2)cc2c(N[C@H](C)c3cccc(C(C)(F)F)c3F)ncnc12` [I-175] showed an IC50 in experiment [1] (setting [4]) of 13 nM.

Turning to `Cc1c(=O)n(C23CC(F)(C2)C3)cc2c(N[C@H](C)c3cccc(C(C)(F)F)c3F)ncnc12` [I-176], the IC50 in experiment [1] (setting [4]) was 10 nM; in experiment [2], 120 nM.

Regarding `Cc1c(=O)n(C23CCC(CC2)C3)cc2c(N[C@H](C)c3cccc4c3CCC4(F)F)ncnc12` [I-177], the IC50 in experiment [1] (setting [4]) was 2 nM; in experiment [2], 91 nM.

As to `Cc1c(=O)n(C23CC(F)(C2)C3)cc2c(N[C@H](C)c3cccc(C(F)(F)C(C)(C)O)c3F)ncnc12` [I-178], in experiment [1] (setting [4]), the IC50 came to 5 nM.
